Read-outs that look alike come from different tables or passages of the source.
Columns and labels:
rat mGluR5 receptor = molecular target: T1, rat mGluR5 receptor (Rattus norvegicus, UniProt P31424); test: [3H]-MPEP displacement binding assay, HEK-293 cell membranes expressing rat mGluR5; details: [3H]-MPEP displacement, read-out: Median Ki
T1 construct: expressed in transfected cells; host or cells: HEK-293
How it was run: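 Membranes from HEK-293 cells expressing rat mGluR5 (12-25 μg protein), incubated 60 min at room temperature with 4 nM [3H]-MPEP in 50 mM Tris pH 7.5, then filtered. Nonspecific binding defined with 10 μM MPEP.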

mGluR5 [1] = molecular target: T2, mGluR5 (Rattus norvegicus, UniProt P31424); test: IC50 column under 'Biological Activity' (assay not identified in the shown text; not the binding Ki)
T2 sequence (P31424 21-1203): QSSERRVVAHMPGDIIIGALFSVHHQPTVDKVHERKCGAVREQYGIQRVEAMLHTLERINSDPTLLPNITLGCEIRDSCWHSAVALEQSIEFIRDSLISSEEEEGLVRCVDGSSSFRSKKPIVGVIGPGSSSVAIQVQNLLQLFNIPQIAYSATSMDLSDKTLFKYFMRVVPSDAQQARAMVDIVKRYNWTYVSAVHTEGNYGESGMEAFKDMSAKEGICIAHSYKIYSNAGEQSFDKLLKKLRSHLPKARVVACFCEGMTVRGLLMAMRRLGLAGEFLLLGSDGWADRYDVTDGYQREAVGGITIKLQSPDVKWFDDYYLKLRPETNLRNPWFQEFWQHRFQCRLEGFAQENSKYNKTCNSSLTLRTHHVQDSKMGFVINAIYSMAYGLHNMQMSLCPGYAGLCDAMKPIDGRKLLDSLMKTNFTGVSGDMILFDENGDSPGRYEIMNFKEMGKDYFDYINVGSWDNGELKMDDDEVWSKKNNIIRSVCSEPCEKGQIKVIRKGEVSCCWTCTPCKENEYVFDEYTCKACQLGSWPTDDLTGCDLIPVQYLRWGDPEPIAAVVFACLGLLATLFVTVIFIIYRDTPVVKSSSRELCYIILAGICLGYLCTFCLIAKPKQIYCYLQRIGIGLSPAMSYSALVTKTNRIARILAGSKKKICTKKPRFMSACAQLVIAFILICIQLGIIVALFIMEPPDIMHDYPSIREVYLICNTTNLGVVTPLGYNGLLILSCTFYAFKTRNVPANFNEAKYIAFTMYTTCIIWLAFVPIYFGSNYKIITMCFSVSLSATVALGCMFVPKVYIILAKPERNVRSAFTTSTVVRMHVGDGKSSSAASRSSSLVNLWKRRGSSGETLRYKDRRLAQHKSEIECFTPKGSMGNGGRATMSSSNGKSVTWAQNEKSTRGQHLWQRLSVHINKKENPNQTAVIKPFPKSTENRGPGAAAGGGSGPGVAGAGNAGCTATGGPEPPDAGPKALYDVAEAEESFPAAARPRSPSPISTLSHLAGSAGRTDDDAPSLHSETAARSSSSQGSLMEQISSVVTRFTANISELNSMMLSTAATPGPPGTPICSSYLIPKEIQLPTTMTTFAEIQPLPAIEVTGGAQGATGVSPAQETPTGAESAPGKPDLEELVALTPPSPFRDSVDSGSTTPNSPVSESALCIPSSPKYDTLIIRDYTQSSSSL

mGluR5 [2] = molecular target: T2, mGluR5; test: as above; remark: listed apart in the source

T1 sequence (P31424 21-1203): as above

| SMILES | Ki (rat mGluR5 receptor; rat mGluR5 membranes) | IC50 (mGluR5 [1]) | Ki (rat mGluR5 receptor; rat mGluR5) | IC50 (mGluR5 [2]) |
| --- | --- | --- | --- | --- |
| COc1ccc(C(=O)N2CCN(c3ccc(C#N)cn3)CC2)cc1C#Cc1ccccn1 [Compound 252, 6-{4-[4-methoxy-3-(pyridin-2-ylethynyl)benzoyl]piperazin-1-yl}nicotinonitrile] |  |  | 33 nM | 192 nM |
| COc1ccc(C(=O)N2CCN(c3ccc([N+](=O)[O-])cc3)CC2)cc1C#Cc1ccccn1 [Compound 232, 1-[4-methoxy-3-(pyridin-2-ylethynyl)benzoyl]-4-(4-nitrophenyl)piperazine] |  |  | 96 nM | > 1000 nM |
| COc1ccc(C(=O)N2CCN(c3nc4ccccc4o3)CC2)cc1C#Cc1ccccn1 [Compound 257, 2-{4-[4-methoxy-3-(pyridin-2-ylethynyl)benzoyl]piperazin-1-yl}-1,3-benzoxazole] |  |  | 38 nM | 110 nM |
| COc1ccc(C(=O)N2C[C@@H]3C[C@@H]2CN3c2ccc(C)cc2)cc1C#Cc1ccccn1 [Compound 226, (1R,4S)-2-[4-methoxy-3-(pyridin-2-ylethynyl)benzoyl]-5-(4-methylphenyl)-2,5-diazabicyclo[2.2.1]heptane] |  |  | 277 nM | > 1000 nM |
| COc1cccc(N2CCN(C(=O)c3ccc(OC)c(C#Cc4ccccn4)c3)CC2)n1 [Compound 213, 1-(6-methoxypyridin-2-yl)-4-[4-methoxy-3-(pyridin-2-ylethynyl)benzoyl]piperazine] |  |  | 11 nM | 86 nM |
| COc1ccc(C(=O)N2CCN(S(=O)(=O)c3ccc(Cl)cc3)CC2)cc1C#Cc1ccccn1 [Compound 243, 1-[(4-chlorophenyl)sulfonyl]-4-[4-methoxy-3-(pyridin-2-ylethynyl)benzoyl]piperazine] |  |  | 14 nM | 154 nM |
| COc1ccc(C(=O)N2CCN(c3cccc(O)c3)CC2)cc1C#Cc1ccccn1 [Compound 195, 3-{4-[4-methoxy-3-(pyridin-2-ylethynyl)benzoyl]piperazin-1-yl}phenol] |  |  | 26 nM | 702 nM |
| COc1ccc(C(=O)N2CCN(c3nnc(C(F)(F)F)s3)CC2)cc1C#Cc1ccccn1 [Compound 206, 1-[4-methoxy-3-(pyridin-2-ylethynyl)benzoyl]-4-[5-(trifluoromethyl)-1,3,4-thiadiazol-2-yl]piperazine] |  |  | 66 nM | 295 nM |
| COc1ccc(C(=O)N2CCN(Cc3ccc4c(c3)OCO4)CC2)cc1C#Cc1ccccn1 [Compound 259, 1-(1,3-benzodioxol-5-ylmethyl)-4-[4-methoxy-3-(pyridin-2-ylethynyl)benzoyl]piperazine] |  |  | 38 nM | 157 nM |
| COc1ccc(C(=O)N2C[C@H]3C[C@H]2CN3c2cccc(F)c2)cc1C#Cc1ccccn1 [Compound 207, (1R,4S)-2-(3-fluorophenyl)-5-[4-methoxy-3-(pyridin-2-ylethynyl)benzoyl]-2,5-diazabicyclo[2.2.1]heptane] |  |  | 19 nM | 306 nM |
| COc1ccc(C(=O)N2CCN(c3ncc(C(F)(F)F)cc3Cl)CC2)cc1C#Cc1ccccn1 [Compound 190, 1-[3-chloro-5-(trifluoromethyl)pyridin-2-yl]-4-[4-methoxy-3-(pyridin-2-ylethynyl)benzoyl]piperazine] |  |  | 413 nM | 408 nM |
| COc1ccc(C(=O)N2CCN(c3cccc(C)c3C)CC2)cc1C#Cc1ccccn1 [Compound 219, 1-(2,3-dimethylphenyl)-4-[4-methoxy-3-(pyridin-2-ylethynyl)benzoyl]piperazine] |  |  | 168 nM | > 1000 nM |
| COc1ccc(C(=O)N2CCN(c3ccccc3Cl)CC2)cc1C#Cc1ccccn1 [Compound 216, 1-(2-chlorophenyl)-4-[4-methoxy-3-(pyridin-2-ylethynyl)benzoyl]piperazine] |  |  | 107 nM | > 1000 nM |
| COc1ccc(C(=O)N2CCN(c3cccc(C)c3)CC2)cc1C#Cc1ccccn1 [Compound 196, 1-[4-methoxy-3-(pyridin-2-ylethynyl)benzoyl]-4-(3-methylphenyl)piperazine] |  |  | 16 nM | 65 nM |
| COc1ccc(C(=O)N2CCN(c3nccc(C(F)(F)F)n3)CC2)cc1C#Cc1ccccn1 [Compound 194, 2-{4-[4-methoxy-3-(pyridin-2-ylethynyl)benzoyl]piperazin-1-yl}-4-(trifluoromethyl)pyrimidine] |  |  | 4 nM | 78 nM |
| COc1ccc(C(=O)N2CCN(c3ccc(C)cc3)CC2)cc1C#Cc1ccccn1 [Compound 222, 1-[4-methoxy-3-(pyridin-2-ylethynyl)benzoyl]-4-(4-methylphenyl)piperazine] |  |  | 74 nM | > 1000 nM |
| COc1ccc(C(=O)N2CCN(c3ccc(F)cc3)CC2)cc1C#Cc1ccccn1 [Compound 231, 1-(4-fluorophenyl)-4-[4-methoxy-3-(pyridin-2-ylethynyl)benzoyl]piperazine] |  |  | 23 nM | 244 nM |
| COc1ccc(C(=O)N2CCN(c3ccncc3)CC2)cc1C#Cc1ccccn1 [Compound 236, 1-[4-methoxy-3-(pyridin-2-ylethynyl)benzoyl]-4-pyridin-4-ylpiperazine] |  |  | 78 nM | > 1000 nM |
| COc1ccc(C(=O)N2CCN(Cc3cccc(Cl)c3)CC2)cc1C#Cc1ccccn1 [Compound 274, 1-(3-chlorobenzyl)-4-[4-methoxy-3-(pyridin-2-ylethynyl)benzoyl]piperazine] |  |  | 89 nM | 316 nM |

The remaining lines, values ahead:

| Ki (rat mGluR5 receptor; rat mGluR5 membranes) | IC50 (mGluR5 [1]) | Ki (rat mGluR5 receptor; rat mGluR5) | IC50 (mGluR5 [2]) | SMILES |
| --- | --- | --- | --- | --- |
| 29 nM | 40 nM |  |  | O=C(c1ccc(C(F)(F)F)c(C#Cc2ccccn2)c1)N1CCN(C(=O)c2ccco2)CC1 [Compound 375, 1-(furan-2-ylcarbonyl)-4-{[3-(pyridin-2-ylethynyl)-4-(trifluoromethyl)phenyl]carbonyl}piperazine] |
| 1 nM | 16 nM |  |  | O=C(c1ccc(OC(F)F)c(C#Cc2ccccn2)c1)N1CCN(c2noc3ccccc23)CC1 [Compound 384, 3-(4-{[4-(difluoromethoxy)-3-(pyridin-2-ylethynyl)phenyl]carbonyl}piperazin-1-yl)-1,2-benzisoxazole] |
| 17 nM | 47 nM |  |  | N#Cc1nccnc1N1CCN(C(=O)c2ccc(Cl)c(C#Cc3ccccn3)c2)CC1 [Compound 396, 3-(4-{[4-chloro-3-(pyridin-2-ylethynyl)phenyl]carbonyl}piperazin-1-yl)pyrazine-2-carbonitrile] |
| 49 nM | 43 nM |  |  | O=C(c1ccc(C(F)(F)F)c(C#Cc2ccccn2)c1)N1CCN(c2nccs2)CC1 [Compound 378, 1-{[3-(pyridin-2-ylethynyl)-4-(trifluoromethyl)phenyl]carbonyl}-4-(1,3-thiazol-2-yl)piperazine] |
| 63 nM | 239 nM |  |  | N#Cc1cccnc1N1CCN(C(=O)c2ccc(Cl)c(C#Cc3ccccn3)c2)CC1 [Compound 389, 2-{4-[4-chloro-3-(pyridin-2-ylethynyl)benzoyl]piperazin-1-yl}nicotinonitrile] |
|  |  | 20 nM | 30 nM | COc1ccnc(N2CCN(C(=O)c3ccc(F)c(C#Cc4ccccn4)c3)CC2)n1 [Compound 317, 2-{4-[4-fluoro-3-(pyridin-2-ylethynyl)benzoyl]piperazin-1-yl}-4-methoxypyrimidine] |
|  |  | 2 nM | 7 nM | O=C(c1ccc(OC(F)(F)F)c(C#Cc2ccccn2)c1)N1CCN(c2ccccn2)CC1 [Compound 340, 1-Pyridin-2-yl-4-{[3-(pyridin-2-ylethynyl)-4-(trifluoromethoxy)phenyl]carbonyl}piperazine] |
|  |  | 68 nM | 1450 nM | COc1ccc(C(=O)N2CCN(c3ncccn3)CC2)cc1C#Cc1ccc(F)cc1 [Compound 362, 2-(4-{3-[(4-fluorophenyl)ethynyl]-4-methoxybenzoyl}piperazin-1-yl)pyrimidine] |
|  |  | 2 nM | 24 nM | O=C(c1ccc(F)c(C#Cc2ccccn2)c1)N1CCN(c2noc3ccccc23)CC1 [Compound 316, 3-{4-[4-fluoro-3-(pyridin-2-ylethynyl)benzoyl]piperazin-1-yl}-1,2-benzisoxazole] |
|  |  | 72 nM | 356 nM | COc1ccc(C(=O)N2CCN(c3nnc(Cl)c4ccccc34)CC2)cc1C#Cc1ccccn1 [Compound 306, 1-chloro-4-{4-[4-methoxy-3-(pyridin-2-ylethynyl)benzoyl]piperazin-1-yl}phthalazine] |
|  |  | 30 nM | 198 nM | COc1ccc(C(=O)N2CCN(c3ncc(F)c(N)n3)CC2)cc1C#Cc1ccccn1 [Compound 300, 5-fluoro-2-{4-[4-methoxy-3-(pyridin-2-ylethynyl)benzoyl]piperazin-1-yl}pyrimidin-4-amine] |
|  |  | 33 nM | 102 nM | COc1ccc(C(=O)N2CCN(c3ncc(F)cn3)CC2)cc1C#Cc1ccccn1 [Compound 298, 5-fluoro-2-{4-[4-methoxy-3-(pyridin-2-ylethynyl)benzoyl]piperazin-1-yl}pyrimidine] |
|  |  | 6 nM | 35 nM | CCOc1ccc(C(=O)N2CCN(c3noc4ccccc34)CC2)cc1C#Cc1ccccn1 [Compound 322, 3-{4-[4-ethoxy-3-(pyridin-2-ylethynyl)benzoyl]piperazin-1-yl}-1,2-benzisoxazole] |
|  |  | 1 nM | 16 nM | O=C(c1ccc(OC(F)(F)F)c(C#Cc2ccccn2)c1)N1CCN(c2noc3ccccc23)CC1 [Compound 338, 3-{4-[3-(pyridin-2-ylethynyl)-4-(trifluoromethoxy)benzoyl]piperazin-1-yl}-1,2-benzisoxazole] |
|  |  | 52 nM | 408 nM | COc1ccc(C(=O)N2CCN(c3nccnc3Cl)CC2)cc1C#Cc1ccccn1 [Compound 304, 2-chloro-3-{4-[4-methoxy-3-(pyridin-2-ylethynyl)benzoyl]piperazin-1-yl}pyrazine] |
|  |  | 39 nM | > 1000 nM | COc1ccc(C(=O)N2CCN(c3nnc(Cl)cc3C)CC2)cc1C#Cc1ccccn1 [Compound 302, 6-chloro-3-{4-[4-methoxy-3-(pyridin-2-ylethynyl)benzoyl]piperazin-1-yl}-4-methylpyridazine] |

From patent publication US20090325964A1, “Piperazine Metabotropic Glutamate Receptor 5 (MGLUR5) Negative Allosteric Modulators For Anxiety/Depression” (Wyeth, priority 2008, published 2009)
